From US9227935B2, “Piperidine/piperazine derivatives” (Janssen Pharmaceutica N.V., priority 2007, dated 2016)

Target: T1, human DGAT1 (Homo sapiens, UniProt O75907)
T1 construct: FLAG (N); made in house; host or cells: SF9 insect cells (baculovirus, pFastBac); total cell membranes used as the enzyme source
T1 sequence (O75907 1-488): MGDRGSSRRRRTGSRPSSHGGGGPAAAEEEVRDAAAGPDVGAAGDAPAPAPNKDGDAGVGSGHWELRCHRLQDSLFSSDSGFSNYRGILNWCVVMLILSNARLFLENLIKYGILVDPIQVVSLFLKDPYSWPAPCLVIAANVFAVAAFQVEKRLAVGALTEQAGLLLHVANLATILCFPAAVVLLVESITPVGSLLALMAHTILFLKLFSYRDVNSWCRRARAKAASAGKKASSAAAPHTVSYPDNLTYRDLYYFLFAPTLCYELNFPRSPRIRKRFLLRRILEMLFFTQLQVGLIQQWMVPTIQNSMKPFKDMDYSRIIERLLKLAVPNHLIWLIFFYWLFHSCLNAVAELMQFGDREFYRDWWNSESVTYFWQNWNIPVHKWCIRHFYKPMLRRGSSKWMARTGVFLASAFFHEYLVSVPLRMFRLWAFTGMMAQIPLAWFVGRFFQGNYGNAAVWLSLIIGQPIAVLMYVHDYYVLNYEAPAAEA
Assay: DGAT1 FlashPlate inhibition assay with DGAT1 membrane preparations
Assay type: biochemical
Conditions: IC50 values expressed in M; pIC50 = -logIC50; inhibition of DGAT1 activity
Text: The inhibiting activity of the present compounds on DGAT1 activity was screened in a single well procedure assay using DGAT1 comprising membrane preparations and DGAT1 substrate comprising micelles and determining formed radio-active triacylglycerol coming in close proximity of a flashplate surface by radioluminescence.
Said assay is described in full detail in WO2006/067071, the content of which is incorporated herein by reference.
By DGAT1 activity is meant the transfer of coenzyme A activated fatty acids to the 3-position of 1,2-diacylglycerols, thus forming a triglyceride molecule, by enzyme DGAT1.
human DGAT1 (NM012079.2) was cloned into the pFastBac vector, containing translation start, a FLAG-tag at the N-terminus as described in literature and a viral Kozak sequence (AAX) preceding the ATG to improve expression in insect cells. Expression was done as described in literature (Cases, S., Smith, S. J., Zheng, Y., Myers H. M., Lear, S. R., Sande, E., Novak, S., Collins, C., Welch, C. B., Lusis, A. J., Erickson, S. K. and Farese, R. V. (1998) Proc. Natl. Acad. Sci. USA 95, 13018-13023.) using SF9 cells.
72 h transfected SF9 cells were collected by centrifugation (13000 rpm-15 min-4° C.) and lysed in 2×500 ml lysis buffer (0.1M Sucrose, 50 mM KCl, 40 mM KH2PO4, 30 mM EDTA pH 7.2. Cells were homogenized by cell disruptor. After centrifugation 1380 rpm-15 min-4° C. (SN discarded), pellet was resuspended in 500 ml lysis buffer and total cell membranes collected by ultracentrifugation at 34000 rpm (100 000 g) for 60 min (4° C.). The collected membranes were resuspended in lysis buffer, divided in aliquots and stored with 10% glycerol at −80° C. until use.
Add 1 ml dioleoyl-sn-glycerol (10 mg/ml) to 10 ml of L-α-phosphatidylcholine (1 mg/ml) and 10 ml of L-α-phosphatidyl-L-serine (1 mg/ml) in a thick glass recipient. Evaporate under nitrogen and put on ice for 15 minutes. Reconstitute in 10 ml Tris/HCl (10 mM, pH 7.4) by sonication on ice. The sonification process consists of sonification cycles of 10 seconds in the sonification bath followed by 10 seconds cool down on ice and repeating this sonification cycle till a homogeneous solution is obtained (takes about 15 minutes). The thus obtained micelles are stored at −20° C. till later use and contain DAG at a final concentration of 1.61 mM.
• 50 mM Tris-HCl (pH 7.4), 150 mM MgCl2, 1 mM EDTA, 0.2% BSA. b) N-ethylmaleimide, 5M • Dissolve 5 g into a final volume of 8 ml DMSO 100% and store at −20° C. in aliquots till later use. c) Substrate mix (for 1 384 well plate=3840 μl) • 612 μl micelles stock (51 μM final) • 16.6 μl oleoylCoA 9.7 mM • 23 μl [^3H]-oleoylCoA (49 Ci/mmol, 500 μCi/ml) • 3188.4 μl Tris pH 7.4, 10 mM d) Enzyme mix (for 1 384 well plate=3520 μl) (5 μg/ml) • Add 11.73 μl of DGAT membrane stock (1500 μg/ml stock) to 3508 μl assay buffer. e) Stop mix (for 1 384 well plate=7.68 ml) (250 mM) • Add 384 μl of N-ethylmaleimide (5M) to 3.456 ml DMSO 100%, and further dilute 3.84 ml of said solution with 3.84 ml DMSO 10%. Method
DGAT activity in membrane preparations was assayed in 50 mM Tris-HCl (pH 7.4), 150 mM MgCl2, 1 mM EDTA and 0.2% BSA, containing 50 μM DAG, […] PC/PS and 8.4 μM [^3H]-oleoylCoA (at a specific activity of 30 nCi/well) in a final volume of 50 μl in 384-well format using the red shifted Basic Image FlashPlate™ (Perkin Elmer Cat. No. SMP400).
In detail, 10 μl enzyme mix and 10 μl substrate mix were added to 30 μl of assay buffer, optionally in the presence of 1 μl DMSO (blank and controls) or 1 μl of the compound to be tested. This reaction mixture was incubated for 120 minutes at 37° C. and the enzymatic reaction stopped by adding 20 μl of the stop mix. The plates were sealed and the vesicles allowed to settle overnight at room temperature. Plates were centrifuged for 5 minutes at 1500 rpm and measured in Leadseeker. […]

IC50 | SMILES
7.76 µM | CCOC(=O)c1ccc(NC(=O)N2CCN(c3ccc(NC(=O)c4ccccc4-c4ccc(C(F)(F)F)cc4)cc3)CC2)cc1 [Compound 72]
3.55 µM | CN(C)c1ccc(NC(=O)N2CCN(c3ccc(NC(=O)c4ccccc4-c4ccc(C(F)(F)F)cc4)cc3)CC2)cc1 [Compound 73]
1.1 µM | Cc1ccccc1NC(=O)N1CCN(c2ccc(NC(=O)c3ccccc3-c3ccc(C(F)(F)F)cc3)cc2)CC1 [Compound 74]
2.14 µM | CCc1ccccc1NC(=O)N1CCN(c2ccc(NC(=O)c3ccccc3-c3ccc(C(F)(F)F)cc3)cc2)CC1 [Compound 75]
7.59 µM | CCCc1ccccc1NC(=O)N1CCN(c2ccc(NC(=O)c3ccccc3-c3ccc(C(F)(F)F)cc3)cc2)CC1 [Compound 76]
4.47 µM | CC(C)c1ccccc1NC(=O)N1CCN(c2ccc(NC(=O)c3ccccc3-c3ccc(C(F)(F)F)cc3)cc2)CC1 [Compound 77]
7.59 µM | CC(C)(C)c1ccccc1NC(=O)N1CCN(c2ccc(NC(=O)c3ccccc3-c3ccc(C(F)(F)F)cc3)cc2)CC1 [Compound 78]
6.46 µM | CCC(C)c1ccccc1NC(=O)N1CCN(c2ccc(NC(=O)c3ccccc3-c3ccc(C(F)(F)F)cc3)cc2)CC1 (stereo not drawn) [Compound 79]
5.5 µM | COc1ccccc1NC(=O)N1CCN(c2ccc(NC(=O)c3ccccc3-c3ccc(C(F)(F)F)cc3)cc2)CC1 [Compound 80]
8.13 µM | CCOc1ccccc1NC(=O)N1CCN(c2ccc(NC(=O)c3ccccc3-c3ccc(C(F)(F)F)cc3)cc2)CC1 [Compound 81]
0.269 µM | Cc1cccc(C)c1NC(=O)N1CCN(c2ccc(NC(=O)c3ccccc3-c3ccc(C(F)(F)F)cc3)cc2)CC1 [Compound 82]
1.55 µM | CCc1cccc(C)c1NC(=O)N1CCN(c2ccc(NC(=O)c3ccccc3-c3ccc(C(F)(F)F)cc3)cc2)CC1 [Compound 83]
5.25 µM | COc1cccc(OC)c1NC(=O)N1CCN(c2ccc(NC(=O)c3ccccc3-c3ccc(C(F)(F)F)cc3)cc2)CC1 [Compound 84]
0.178 µM | Cc1cc(C)c(NC(=O)N2CCN(c3ccc(NC(=O)c4ccccc4-c4ccc(C(F)(F)F)cc4)cc3)CC2)c(C)c1 [Compound 85]
9.77 µM | COC(=O)c1ccccc1NC(=O)N1CCN(c2ccc(NC(=O)c3ccccc3-c3ccc(C(F)(F)F)cc3)cc2)CC1 [Compound 86]
7.41 µM | CCOC(=O)c1ccccc1NC(=O)N1CCN(c2ccc(NC(=O)c3ccccc3-c3ccc(C(F)(F)F)cc3)cc2)CC1 [Compound 87]
1.38 µM | O=C(Nc1ccc(N2CCN(C(=O)Nc3ccccc3Br)CC2)cc1)c1ccccc1-c1ccc(C(F)(F)F)cc1 [Compound 88]

The remaining lines, values behind:

SMILES | IC50
O=C(Nc1ccc(C2CCN(C(=O)Nc3c(Cl)cccc3Cl)CC2)cc1)C1CNC1 [Compound 46] | 2.4 µM
O=C(Nc1ccc(C2CCN(C(=O)Nc3c(Cl)cccc3Cl)CC2)cc1)C1CC(O)CN1 (stereo not drawn) [Compound 47] | 5.37 µM
O=C(Nc1ccc(C2CCN(C(=O)Nc3c(Cl)cccc3Cl)CC2)cc1)C1CSCN1 (stereo not drawn) [Compound 48] | 3.55 µM
O=C(Nc1ccc(C2CCN(C(=O)Nc3c(Cl)cccc3Cl)CC2)cc1)C1CCCNC1 (stereo not drawn) [Compound 49] | 8.91 µM
CC(C)(C)OC(=O)N1CSCC1C(=O)Nc1ccc(C2CCN(C(=O)Nc3c(Cl)cccc3Cl)CC2)cc1 (stereo not drawn) [Compound 50] | 0.295 µM
CC(C)(C)OC(=O)N1CCCC1C(=O)Nc1ccc(C2CCN(C(=O)Nc3c(Cl)cccc3Cl)CC2)cc1 (stereo not drawn) [Compound 51] | 0.49 µM
CC(C)(C)OC(=O)N1CCCC(C(=O)Nc2ccc(C3CCN(C(=O)Nc4c(Cl)cccc4Cl)CC3)cc2)C1 (stereo not drawn) [Compound 52] | 0.0174 µM
Cc1nc(C(=O)Nc2ccc(C3CCN(C(=O)Nc4c(Cl)cccc4Cl)CC3)cc2)c(-c2cccc(C(F)(F)F)c2)s1 [Compound 53] | 1.48 µM
CCc1nc(C)c(-c2ccccc2C(=O)Nc2ccc(C3CCN(C(=O)Nc4c(Cl)cccc4Cl)CC3)cc2)s1 [Compound 55] | 0.0263 µM
O=C(Nc1ccc(C2CCN(C(=O)Nc3c(Cl)cccc3Cl)CC2)cc1)c1ccccc1-c1ccccc1 [Compound 56] | 0.331 µM
O=C(Nc1ccc(C2CCN(C(=O)Nc3c(Cl)cccc3Cl)CC2)cc1)c1ccccc1-c1ccc(Cl)cc1 [Compound 57] | 0.646 µM
Cc1ccc(C(=O)Nc2ccc(C3CCN(C(=O)Nc4c(Cl)cccc4Cl)CC3)cc2)c(-c2ccc(C(F)(F)F)cc2)c1 [Compound 58] | 0.355 µM
Cc1cccc(C(=O)Nc2ccc(C3CCN(C(=O)Nc4c(Cl)cccc4Cl)CC3)cc2)c1-c1ccc(C(F)(F)F)cc1 [Compound 59] | 2.04 µM
Cc1ccccc1-c1cccc(C(=O)Nc2ccc(C3CCN(C(=O)Nc4c(Cl)cccc4Cl)CC3)cc2)c1 [Compound 60] | 0.0174 µM
CC(C)c1ccc(-c2ccccc2C(=O)Nc2ccc(C3CCN(C(=O)Nc4c(Cl)cccc4Cl)CC3)cc2)cc1 [Compound 61] | 0.427 µM
CC(C)(C)c1ccc(-c2ccccc2C(=O)Nc2ccc(C3CCN(C(=O)Nc4c(Cl)cccc4Cl)CC3)cc2)cc1 [Compound 62] | 0.55 µM
O=C(Nc1ccc(C2CCN(C(=O)Nc3c(Cl)cccc3Cl)CC2)cc1)c1cccc2c1-c1ccccc1C2=O [Compound 63] | 0.12 µM
Cc1ccc2c(c1)C(=O)c1cc(C)cc(C(=O)Nc3ccc(C4CCN(C(=O)Nc5c(Cl)cccc5Cl)CC4)cc3)c1-2 [Compound 64] | 0.132 µM
Cc1nc(C(=O)Nc2ccc(N3CCN(C(=O)Nc4c(Cl)cccc4Cl)CC3)cc2)c(-c2cccc(C(F)(F)F)c2)s1 [Compound 65] | 0.204 µM
Cc1ccc(C(=O)Nc2ccc(N3CCN(C(=O)Nc4c(Cl)cccc4Cl)CC3)cc2)c(-c2ccc(C(F)(F)F)cc2)c1 [Compound 66] | 0.0589 µM
Cc1ccc2c(c1)C(=O)c1cc(C)cc(C(=O)Nc3ccc(N4CCN(C(=O)Nc5c(Cl)cccc5Cl)CC4)cc3)c1-2 [Compound 67] | 0.148 µM
O=C(Nc1ccc(N2CCN(C(=S)Nc3ccc(Cl)cc3Cl)CC2)cc1)c1ccccc1-c1ccc(C(F)(F)F)cc1 [Compound 68] | 7.24 µM
CC(C)(C)NC(=O)N1CCN(c2ccc(NC(=O)c3ccccc3-c3ccc(C(F)(F)F)cc3)cc2)CC1 [Compound 69] | 7.94 µM
O=C(Nc1ccc(N2CCN(C(=O)NCc3ccccc3)CC2)cc1)c1ccccc1-c1ccc(C(F)(F)F)cc1 [Compound 70] | 5.5 µM
O=C(Nc1ccc(N2CCN(C(=O)NCCCc3ccccc3)CC2)cc1)c1ccccc1-c1ccc(C(F)(F)F)cc1 [Compound 71] | 3.55 µM
